{
  "source": "patent US20260015574A1",
  "about": "“METHODS FOR SHORTENING LAG PHASE DURATION IN MICROORGANISMS” (YEDA RESEARCH AND DEVELOPMENT CO. LTD., priority 2022, published 2026)",
  "key": {"[1]": {"test_system": "P. inhibens dmdA KO mutant", "experiment": "Lag phase shortening in dmdA knockout mutant", "assay_type": "cell-based, Phaeobacter inhibens", "experimental": "(§1) For creation of P. inhibens knockout cells, ˜1,000 bp regions upstream and downstream of the gene of interest were amplified by PCR (Phusion High-Fidelity DNA polymerase, Thermo Scientific), using primers that added homologous regions to gentamycin or kanamycin resistance markers. The fragments were assembled and cloned into the TOPOII vector (Invitrogen) using restriction-free cloning (Peleg Y. & Unger T., 2014), generating a knockout (KO) plasmid. P. inhibens electrocompetent cells (300 μl) were transformed with 10 μg of the constructed KO plasmid by a pulse of 1.8 kV (Bio Rad). Cells were selected on ½YTSS agar plates containing 30 μg/ml gentamycin or 150 μg/ml kanamycin. Successful knockouts in single cell clones were verified by PCR and sanger sequencing.\nThe inventors further sought to better understand why methyl groups shorten the bacterial lag phase. The inventors list at least three cellular scenarios which could explain the effect that methylated compounds have on the lag phase: (1) methyl groups might be a limiting resource; (2) methyl groups might act as a signal that triggers a cellular cascade, which culminates in lag phase shortening; and (3) methylated compounds could accumulate intracellularly and function as osmoprotectants and antioxidants. […]"}, "[2]": {"test_system": "methionine synthesis activity in P. inhibens protein crude extracts", "experiment": "Methionine synthesis activity assay with P. inhibens protein crude extracts", "assay_type": "biochemical, Phaeobacter inhibens", "settings": "crude extracts of stationary bacterial cells treated with 1 μM DMSP for 2 hours; LC/MS", "experimental": "The bacterium P. inhibens DSM 17395 was cultivated in 100 mL ASW with 5.5 mM glucose until reaching stationary phase, and then treated with 1 μM DMSP for 2 hours. Cell pellets of control and treated bacteria were harvested by 10 min centrifugation (15,000 rpm) at 4° C. The pellets were washed with buffer A (50 mM Hepes-KOH PH 7.5), resuspended in buffer B (50 mM Hepes-KOH PH 7.5, 10 mM β-mercaptoethanol, 1 mM EDTA) and disrupted by 5 min bead beating at 30 s^−1 with 300 mg silica beads (Mixer Mill MM-400, Retsch, Haan, Germany). The supernatant was collected by 5 min centrifugation (15,000 rpm). To measure the activity of enzymatic DMSP demethylation and methionine formation, 0.5 mL crude extract (1 mg/mL protein; determined with Bio-Rad protein assay, Hercules, California, U.S.) were incubated for 1 h with 1 mL Buffer C (60 mM PPB, 4.5 mM homocysteine, 4.5 mM DMSP, pH 7.5). The reaction mix was snap frozen in liquid nitrogen, and subsequently analyzed for product formation using LC/MS (FIG. 10).\nTo further elucidate the fate of methyl groups, the inventors analyzed the transcriptome of DMSP-treated P. inhibens bacteria during the lag phase, and compared it to untreated control cultures. […]"}, "P. inhibens Δbmt mutant": {"test_system": "P. inhibens Δbmt mutant", "experiment": "Growth and lag phase shortening in Δbmt mutant", "assay_type": "cell-based, Phaeobacter inhibens", "settings": "2 μM DMSP, minimal media with or without 200 μM methionine", "experimental": "as §1"}, "[3]": {"test_system": "betaine-homocysteine S-methyltransferase (Bmt)", "experiment": "Methionine synthesis in vitro assay with purified Bmt", "assay_type": "biochemical, P. inhibens", "settings": "200 μM methyl group donor, 2 mM homocysteine, 30° C., 2 h, fluorometric", "experimental": "The expression plasmid pET29b encoding the bmt gene with a Strep-tag II peptide sequence fused to the N-terminus was purchased from Twist Biosciences. The methionine synthase gene mmuM from E. coli was PCR-amplified (Phusion High-Fidelity DNA polymerase, Thermo Scientific) and cloned into the pET29b vector using the CPEC technique (Quan J. & Tian J., 2009). Resulting clones were validated by sanger sequencing. E. coli BL21 electrocompetent cells were transformed with […] of the expression vectors, and cells were selected on LB agar plates containing 50 μg/ml kanamycin. Bacteria were grown in Tryptone Yeast extract Glucose (TYG) medium supplemented with 50 μg/ml kanamycin at 37° C. to mid-log phase (OD600 0.7). Then, cultures were induced with 0.2 mM of IPTG for 3 hours at 37° C. Bacteria were harvested by centrifugation (4,000 rpm for 15 min at 4° C.) and cells were resuspended in 20 mL of NP buffer (50 mM NaH2PO4, 300 mM NaCl, pH 8) and 100 μl of 10× Protease inhibitor (Sigma). […] The Protein concentration was determined with the Protein Assay Dye Reagent Concentrate (BioRad) following the manufacturer's instructions. […]\nThe methionine synthesis in vitro assay was based on the protocol of Ranocha et al., 2000. […] Methionine formation was measured from 20 μl of the in vitro reactions using the Fluorometric Methionine Assay Kit (Sigma; results depicted in FIG. 14). […]"}},
  "data": [
    {"smiles": "C[S+](C)CCC(=O)[O-]", "note": "[DMSP, dimethylsulfoniopropionate]", "values": [
      {"measurement": "lag phase shortening", "setting": "[1]", "value": "does not shorten the lag phase"},
      {"measurement": "methionine synthesis activity", "setting": "[2]", "value": "elevated"},
      {"measurement": "lag phase shortening", "setting": "P. inhibens Δbmt mutant", "value": "did not induce lag phase shortening"},
      {"measurement": "methionine formation with DMSP as methyl group donor", "setting": "[3]", "value": "catalyzes the production of methionine"}
    ]}
  ]
}
